Assay results from patent US11337921B2, “Multi-use torasemide composition” (VETOQUINOL SA, priority 2018, dated 2022).

Assay: Solubility of torasemide as a function of pH
Type: physicochemical
Settings: pH between about 2 and 7 (FIG. 1)
Text: Moreover, the solubility of torasemide depends on the pH of the solution. The stability of torasemide in solution is, moreover, a function of the additives and excipients used in the composition. Thus, torasemide is insoluble at a pH between about 2 and 7 (FIG. 1).

For `Cc1cccc(Nc2ccncc2S(=O)(=O)NC(=O)NC(C)C)c1` [torasemide, 1-isopropyl-3-[(4-m-toluidino-3-pyridyl)sulfonyl]urea], the Solubility of torasemide was “insoluble”.
